Converted amounts (≈) assume the structure as drawn. Like-named read-outs stand apart in the source and are kept apart here.
How the values were obtained:
C. albicans = test: Antifungal activities, MIC/MFC; assay type: cell-based; conditions: C. albicans; for MIC: Table 2, 1st value in brackets, read-out: minimum inhibitory concentration (MIC)
Experimental: (§1) A similar sequence of reactions was carried out using lysine dicholamide in place of cholic acid afforded VJ-1147 of Table 2. To assess the antifungal properties of the diwalled VJ-1138 (Table 2) and 2a of Table 3, their in vitro activities were examined against four clinically relevant microbes, i.e., C. albicans, C. glabrata, C. neoformans, and C. gatti (Table 4).
(§2) Minimum inhibitory concentrations (MIC) and minimum fungicidal concentrations (MFC) are the lowest concentrations that are required for completely inhibiting growth, and killing at least 99% of the fungi, respectively.
(§3) The above molecules were tested for antifungal activity. Minimum inhibitory concentrations (MIC) and minimum fungicidal concentrations (MFC) are the lowest concentrations that are required for completely inhibiting growth, and killing at least 99% of the fungi, respectively. As is apparent from Table 4 below, there is a general trend; i.e., increased antifungal activity is observed as the length of the hydrocarbon chain that separates the facial amphiphile from the Amphotericin B moiety is decreased.

C. neoformans = test: Antifungal activities, MIC/MFC; assay type: cell-based; conditions: C. neoformans; for MIC: Table 2, 3rd value in brackets, read-out: minimum inhibitory concentration (MIC)
Experimental: as §1, §2, §3

C. glabrata = test: Antifungal activities, MIC/MFC; assay type: cell-based; conditions: C. glabrata; for MIC: Table 2, 2nd value in brackets, read-out: minimum inhibitory concentration (MIC)
Experimental: as §1, §2, §3

C. gatti = test: Antifungal activities, MIC/MFC; assay type: cell-based; conditions: C. gatti; for MIC: Table 2, 4th value in brackets, read-out: minimum inhibitory concentration (MIC)
Experimental: as §1, §2, §3

sheep red blood cells = test: Hemolysis measurements, release of hemoglobin; assay type: cell-based; conditions: up to concentrations of 500 μM; 37° C. in PBS, pH 7.4
Experimental: Sheep Red Blood Cells, 10%, in saline (Innovative Research, Novi, Mich.), were diluted in saline (pH 7.4) to a concentration of 4%, which corresponds to 4×10^7 cells/mL. All measurements were carried out in duplicate. Solutions of Amphotericin B (Sigma-Aldrich) were prepared by adding 10 μL of a DMSO solution containing a given concentration of the antibiotic (i.e., ranging from 0.2 mM to 50 mM) to 490 μL of PBS. After the resulting solution was vortex mixed for 30 seconds (s) it was incubated at 37° C. for 15 min. The resulting solution of antibiotic (500 μL) was then mixed with 500 μL of the 4% erythrocyte dispersion at 37° C. in a 1 mL plastic centrifuge vial to give a dispersion that was vortex mixed at slow rate for 5 s. After 1 h of incubation at 37° C., all samples were centrifuged (1500 g, Eppendorf centrifuge 5415C, 5000 rpm) at rt for 5 min. The supernatant (˜0.7 mL) from each plastic vial was carefully separated from sediment using a disposable glass pipette and quickly transferred to test tube. A volume of 50 μL of this supernatant was then transferred to a UV cell containing 500 μL of PBS that was maintained at 37° C. The UV spectrum was then scanned (450-650 nm) and the absorbance at 575 nm used to determine the extent of hemolysis. The extent of 0% and 100% of hemolysis was obtained from A575 values of experiments that were run in absence of AmphB (control, [A575,]o) and in presence, 100 μM AmphB ([A575]max), respectively.

Cryptococcus neoformans = test: Cryptococcosis mouse model, brain and lung tissue burden; assay type: in vivo, mice; conditions: after intravenous administration
Experimental: Cryptococcosis mice are infected via tail vein injection of 5×10^4 C. neoformans cells. Inocula are verified by quantitative culture. Animals are identified by temporary ink marking, assigned to groups of 10 mice. Test compounds will be dosed starting on the day of infection. Initial studies will employ i.v., i.p. or oral (gavage) dosing (depending on the compound and the vehicle). Antifungal compounds are given for a period of 7 days. […] On day 8, the lung and brain are evaluated by quantitative culture per gram of tissue, by weighing organs and culturing serially diluted homogenates. These tissue burden studies permit detection of drug efficacy that may not be evident by using a survival endpoint.
The mice were then sacrificed 7 days later for quantitative culture of brain and lung, with cryptococcal cells per gram tissue being expressed as logarithmic values (log 10). Mean values for each group were compared using the t-test.

| Compound | MIC (C. gatti) | MIC (C. albicans) | MIC (C. neoformans) | MIC (C. glabrata) | other results |
| --- | --- | --- | --- | --- | --- |
| CC1OC(O[C@H]2/C=C/C=C/C=C/C=C/C=C/C=C/C=C/[C@H](C)[C@@H](O)[C@@H](C)[C@H](C)OC(=O)C[C@H](O)C[C@H](O)CC[C@@H](O)[C@H](O)C[C@H](O)C[C@]3(O)C[C@H](O)[C@@H](C(=O)NCCCCNC(=O)C(CCCCNC(=O)CC[C@@H](C)C4CCC5C6C(O)CC7CC(O)CCC7(C)C6CC(O)C54C)NC(=O)CC[C@@H](C)C4CCC5C6C(O)CC7CC(O)CCC7(C)C6CC(O)C54C)[C@H](C2)O3)C(O)C(N)C1O (stereo partly drawn) [YM-15] | 4 µM (≈ 7.61 µg/mL) | – | – | – | MIC (C. albicans; Candida albicans): > 16 µM; MIC (C. neoformans; Cryptococcus neoformans): > 16 µM; MIC (C. glabrata; Nakaseomyces glabratus): > 16 µM |
| CC1OC(O[C@H]2/C=C/C=C/C=C/C=C/C=C/C=C/C=C/[C@H](C)[C@@H](O)[C@@H](C)[C@H](C)OC(=O)C[C@H](O)C[C@H](O)CC[C@@H](O)[C@H](O)C[C@H](O)C[C@]3(O)C[C@H](O)[C@@H](C(=O)NCCCCCCNC(=O)CC[C@@H](C)C4CCC5C6C(O)CC7CC(O)CCC7(C)C6CC(O)C54C)[C@H](C2)O3)C(O)C(N)C1O (stereo partly drawn) [YYM-72] | – | – | – | – | hemolytic activity (sheep red blood cells): negligible hemolytic activity |
| CC1OC(O[C@H]2/C=C/C=C/C=C/C=C/C=C/C=C/C=C/[C@H](C)[C@@H](O)[C@@H](C)[C@H](C)OC(=O)C[C@H](O)C[C@H](O)CC[C@@H](O)[C@H](O)C[C@H](O)C[C@]3(O)C[C@H](O)[C@@H](C(=O)NCCCCNC(=O)C(CCCCNC(=O)CC[C@@H](C)C4CCC5C6C(O)CC7CC(OC(=O)NCCCCN)CCC7(C)C6CC(O)C54C)NC(=O)CC[C@@H](C)C4CCC5C6C(O)CC7CC(OC(=O)NCCCCN)CCC7(C)C6CC(O)C54C)[C@H](C2)O3)C(O)C(N)C1O (stereo partly drawn) [YM-18] | 2 µM (≈ 4.26 µg/mL) | 2 µM (≈ 4.26 µg/mL) | 2 µM (≈ 4.26 µg/mL) | 16 µM (≈ 34.1 µg/mL) | – |
| CC1OC(O[C@H]2/C=C/C=C/C=C/C=C/C=C/C=C/C=C/[C@H](C)[C@@H](O)[C@@H](C)[C@H](C)OC(=O)C[C@H](O)C[C@H](O)CC[C@@H](O)[C@H](O)C[C@H](O)C[C@]3(O)C[C@H](O)[C@@H](C(=O)NCCCCNC(=O)C(CCCCNC(=O)CC[C@@H](C)C4CCC5C6C(O)CC7CC(OC(=O)NCC(O)C(O)C(O)C(O)CO)CCC7(C)C6CC(O)C54C)NC(=O)CC[C@@H](C)C4CCC5C6C(O)CC7CC(OC(=O)NCC(O)C(O)C(O)C(O)CO)CCC7(C)C6CC(O)C54C)[C@H](C2)O3)C(O)C(N)C1O (stereo partly drawn) [YM-13] | 4 µM (≈ 9.27 µg/mL) | 8 µM (≈ 18.5 µg/mL) | 2 µM (≈ 4.64 µg/mL) | 8 µM (≈ 18.5 µg/mL) | – |
| CC1OC(O[C@H]2/C=C/C=C/C=C/C=C/C=C/C=C/C=C/[C@H](C)[C@@H](O)[C@@H](C)[C@H](C)OC(=O)C[C@H](O)C[C@H](O)CC[C@@H](O)[C@H](O)C[C@H](O)C[C@]3(O)C[C@H](O)[C@@H](C(=O)NCCCCCCCC(=O)N(CCCCNC(=O)CC[C@@H](C)C4CCC5C6C(OC(=O)NCCCCN)CC7CC(OC(=O)NCCCCN)CCC7(C)C6CC(OC(=O)NCCCCN)C54C)CCCNC(=O)CC[C@@H](C)C4CCC5C6C(OC(=O)NCCCCN)CC7CC(OC(=O)NCCCCN)CCC7(C)C6CC(OC(=O)NCCCCN)C54C)[C@H](C2)O3)C(O)C(N)C1O (stereo partly drawn) [VJ-1147] | 8 µM (≈ 21.3 µg/mL) | 8 µM (≈ 21.3 µg/mL) | 8 µM (≈ 21.3 µg/mL) | 16 µM (≈ 42.5 µg/mL) | – |
| CC1OC(O[C@H]2/C=C/C=C/C=C/C=C/C=C/C=C/C=C/[C@H](C)[C@@H](O)[C@@H](C)[C@H](C)OC(=O)C[C@H](O)C[C@H](O)CC[C@@H](O)[C@H](O)C[C@H](O)C[C@]3(O)C[C@H](O)[C@@H](C(=O)NCCCCNC(=O)C(CCCCNC(=O)CC[C@@H](C)C4CCC5C6C(O)CC7CC(OC(=O)NCCN(C)C)CCC7(C)C6CC(O)C54C)NC(=O)CC[C@@H](C)C4CCC5C6C(O)CC7CC(OC(=O)NCCN(C)C)CCC7(C)C6CC(O)C54C)[C@H](C2)O3)C(O)C(N)C1O (stereo partly drawn) [YM-19] | 2 µM (≈ 4.26 µg/mL) | 4 µM (≈ 8.53 µg/mL) | 2 µM (≈ 4.26 µg/mL) | 32 µM (≈ 68.2 µg/mL) | – |
| CC1OC(O[C@H]2/C=C/C=C/C=C/C=C/C=C/C=C/C=C/[C@H](C)[C@@H](O)[C@@H](C)[C@H](C)OC(=O)C[C@H](O)C[C@H](O)CC[C@@H](O)[C@H](O)C[C@H](O)C[C@]3(O)C[C@H](O)[C@@H](C(=O)NCCSSCCC(=O)N(CCCCNC(=O)C(CCCCNC(=O)CC[C@@H](C)C4CCC5C6C(OS(=O)(=O)[O-])CC7CC(OS(=O)(=O)[O-])CCC7(C)C6CC(OS(=O)(=O)[O-])C54C)NC(=O)CC[C@@H](C)C4CCC5C6C(OS(=O)(=O)[O-])CC7CC(OS(=O)(=O)[O-])CCC7(C)C6CC(OS(=O)(=O)[O-])C54C)CCCNC(=O)C(CCCCNC(=O)CC[C@@H](C)C4CCC5C6C(OS(=O)(=O)[O-])CC7CC(OS(=O)(=O)[O-])CCC7(C)C6CC(OS(=O)(=O)[O-])C54C)NC(=O)CC[C@@H](C)C4CCC5C6C(OS(=O)(=O)[O-])CC7CC(OS(=O)(=O)[O-])CCC7(C)C6CC(OS(=O)(=O)[O-])C54C)[C@H](C2)O3)C(O)C(N)C1O.[Na+].[Na+].[Na+].[Na+].[Na+].[Na+].[Na+].[Na+].[Na+].[Na+].[Na+].[Na+] (stereo partly drawn) [compound 10] | – | – | – | – | activity in brain and lung tissue (Cryptococcus neoformans): negligible activity; minimum inhibitory concentration (MIC in μM) relative to AmphB (C. albicans; 1st value in brackets): > 426 µM; minimum inhibitory concentration (MIC in μM) relative to AmphB (C. neoformans; 3rd value in brackets): > 426 µM; minimum inhibitory concentration (MIC in μM) relative to AmphB (C. glabrata; 2nd value in brackets): > 426 µM; minimum inhibitory concentration (MIC in μM) relative to AmphB (C. gatti; 4th value in brackets): > 426 µM |
| CC1OC(O[C@H]2/C=C/C=C/C=C/C=C/C=C/C=C/C=C/[C@H](C)[C@@H](O)[C@@H](C)[C@H](C)OC(=O)C[C@H](O)C[C@H](O)CC[C@@H](O)[C@H](O)C[C@H](O)C[C@]3(O)C[C@H](O)[C@@H](C(=O)NCCOCCOCCC(=O)N(CCCCNC(=O)CC[C@@H](C)C4CCC5C6C(O)CC7CC(O)CCC7(C)C6CC(O)C54C)CCCNC(=O)CC[C@@H](C)C4CCC5C6C(O)CC7CC(O)CCC7(C)C6CC(O)C54C)[C@H](C2)O3)C(O)C(N)C1O (stereo partly drawn) [YM-42] | > 16 µM | – | – | – | MIC (C. albicans; Candida albicans): > 16 µM; MIC (C. neoformans; Cryptococcus neoformans): > 16 µM; MIC (C. glabrata; Nakaseomyces glabratus): > 16 µM |

— patent publication US10322187B2, “Reduced toxicity molecular conjugates of anti-fungal agents” (Lehigh University, priority 2015, dated 2019)
